In PubChem BioAssay AID248 (DTP/NCI, 2004):
“And” between values parts separate entries of the source, which are not always exact repeats. Equal values may be shown once. Toxic doses and inconclusive results are not listed. Cut-off read from the data, not from the text of the source: active = T/C of 150% or more; inactive = T/C below 125%.

Tested on: L1210 leukemia ip in BDF1 mice, survival T/C
Assay: NCI In Vivo Anticancer Drug Screen. Data for tumor model L1210 Leukemia (intraperitoneal) in B6D2F1 (BDF1) mice
Conditions: endpoint: mean survival time, higher = longer survival
Summary of the method: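 Tumor was transplanted into mice, which were then dosed with test compound or vehicle alone. Survival was recorded for each group, and the treated figure was expressed relative to the control figure.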

[1] = dose: 25.0 mg/kg/injection, schedule: Q04DX003 (ip), vehicle: saline
[2] = dose: 50.0 mg/kg/injection, schedule: Q04DX003 (ip), vehicle: saline
[3] = dose: 100.0 mg/kg/injection, schedule: Q04DX003 (ip), vehicle: saline
[4] = dose: 100.0 mg/kg/injection, schedule: Q01DX001 (ip), vehicle: Klucel (hydroxypropylcellulose) (HPC)
[5] = dose: 200.0 mg/kg/injection, schedule: Q01DX001 (ip), vehicle: Klucel (hydroxypropylcellulose) (HPC)
[6] = dose: 400.0 mg/kg/injection, schedule: Q01DX001 (ip), vehicle: Klucel (hydroxypropylcellulose) (HPC)
[7] = dose: 100.0 mg/kg/injection, schedule: Q01DX001 (ip), vehicle: saline
[8] = dose: 200.0 mg/kg/injection, schedule: Q01DX001 (ip), vehicle: saline
[9] = dose: 400.0 mg/kg/injection, schedule: Q01DX001 (ip), vehicle: saline
[10] = dose: 100.0 mg/kg/injection, schedule: Q04DX003 (ip), vehicle: Klucel (hydroxypropylcellulose) (HPC)
[11] = dose: 200.0 mg/kg/injection, schedule: Q04DX003 (ip), vehicle: Klucel (hydroxypropylcellulose) (HPC)
[12] = dose: 400.0 mg/kg/injection, schedule: Q04DX003 (ip), vehicle: Klucel (hydroxypropylcellulose) (HPC)
[13] = dose: 100.0 mg/kg/injection, schedule: Q01DX009 (ip), vehicle: Klucel (hydroxypropylcellulose) (HPC)
[14] = dose: 200.0 mg/kg/injection, schedule: Q01DX009 (ip), vehicle: Klucel (hydroxypropylcellulose) (HPC)
[15] = dose: 200.0 mg/kg/injection, schedule: Q04DX003 (ip), vehicle: saline with Tween-80
[16] = dose: 400.0 mg/kg/injection, schedule: Q04DX003 (ip), vehicle: saline with Tween-80
[17] = dose: 100.0 mg/kg/injection, schedule: Q01DX001 (ip), vehicle: carboxymethylcellulose (CMC)
[18] = dose: 200.0 mg/kg/injection, schedule: Q01DX001 (ip), vehicle: carboxymethylcellulose (CMC)
[19] = dose: 100.0 mg/kg/injection, schedule: Q01DX009 (ip), vehicle: saline with Tween-80
[20] = dose: 200.0 mg/kg/injection, schedule: Q01DX009 (ip), vehicle: saline with Tween-80
[21] = dose: 400.0 mg/kg/injection, schedule: Q01DX009 (ip), vehicle: saline with Tween-80
[22] = dose: 100.0 mg/kg/injection, schedule: Q04DX003 (ip), vehicle: saline with Tween-80
[23] = dose: 50.0 mg/kg/injection, schedule: Q01DX001 (ip), vehicle: carboxymethylcellulose (CMC)
[24] = dose: 200.0 mg/kg/injection, schedule: Q04DX003 (ip), vehicle: saline
[25] = dose: 400.0 mg/kg/injection, schedule: Q01DX001 (ip), vehicle: carboxymethylcellulose (CMC)

Measured: T/C

CNCC(C)CNC
inactive: [1] 94 % of control | dose: 50.0 mg/kg/injection, schedule: Q01DX009 (ip), vehicle: saline 103 % of control | [2] 93 % of control | dose: 100.0 mg/kg/injection, schedule: Q01DX009 (ip), vehicle: saline 103 % of control | [3] 95 % of control and 97 % of control

Nc1cccc(OCCCn2cc(-c3ccc(Cl)c(Cl)c3)c(N)nc2=O)c1
inactive: [4] 99 % of control | [5] 92 % of control | [6] 100 % of control

CCN1C(=O)Cc2ccccc21
inactive: [4] 98 % of control | [5] 102 % of control | [6] 93 % of control

COC(=O)OCC1OC(OC(C)=O)C2OC(=O)OC12 (stereo unspecified)
inactive: [7] 97 % of control | [8] 97 % of control | [9] 97 % of control

O=C1C2Nc3ccccc3CC2CN1Cc1ccccc1 (stereo unspecified)
inactive: dose: 10.0 mg/kg/injection, schedule: Q04DX003 (ip), vehicle: alcohol 106 % of control | dose: 20.0 mg/kg/injection, schedule: Q04DX003 (ip), vehicle: alcohol 99 % of control | dose: 40.0 mg/kg/injection, schedule: Q04DX003 (ip), vehicle: alcohol 99 % of control | dose: 80.0 mg/kg/injection, schedule: Q04DX003 (ip), vehicle: alcohol 97 % of control | dose: 160.0 mg/kg/injection, schedule: Q04DX003 (ip), vehicle: alcohol 100 % of control

CC(C)(C)C(=O)CSC/C(=N/O)C(C)(C)C
inactive: [10] 112 % of control | [11] 103 % of control | [12] 99 % of control

CNC(Cc1ccccc1)c1ccc(OC)cc1 (stereo unspecified)
inactive: [13] 100 % of control | [10] 96 % of control | [14] 98 % of control | [11] 98 % of control | [12] 101 % of control

Cc1ccc([N+](=O)[O-])cc1NC(=O)Sc1ccccc1O
inactive: [15] 92 % of control | [16] 90 % of control

O=P(NC(=S)OCCN1CC1)(NC(=S)OCCN1CC1)NC(=S)OCCN1CC1
inactive: [17] 107 % of control | [18] 96 % of control

O=C1CCCN1C(=O)C1CC1
inactive: dose: 100.0 mg/kg/injection, schedule: Q01DX001 (ip), vehicle: saline sonified 96 % of control | [19] 91 % of control | dose: 200.0 mg/kg/injection, schedule: Q01DX001 (ip), vehicle: saline sonified 109 % of control | [20] 87 % of control | dose: 400.0 mg/kg/injection, schedule: Q01DX001 (ip), vehicle: saline sonified 106 % of control | [21] 92 % of control

O=C(Nc1cccnc1)c1cccc([N+](=O)[O-])c1
inactive: dose: 200.0 mg/kg/injection, schedule: Q04DX002 (ip), vehicle: Klucel (hydroxypropylcellulose) (HPC) 108 % of control | dose: 400.0 mg/kg/injection, schedule: Q04DX002 (ip), vehicle: Klucel (hydroxypropylcellulose) (HPC) 97 % of control

COc1ccccc1-n1c(O)c(N=Nc2ccc(Cl)cc2)c(=O)n(-c2ccccc2OC)c1=S
inactive: [4] 104 % of control | [5] 110 % of control

COC1CCCC[CH]1[Hg][Br] (stereo unspecified)
inactive: dose: 0.78 mg/kg/injection, schedule: Q01DX009 (ip), vehicle: saline with Tween-80 90 % of control | dose: 1.56 mg/kg/injection, schedule: Q01DX009 (ip), vehicle: saline with Tween-80 96 % of control | dose: 3.13 mg/kg/injection, schedule: Q01DX009 (ip), vehicle: saline with Tween-80 96 % of control | dose: 12.5 mg/kg/injection, schedule: Q01DX009 (ip), vehicle: saline with Tween-80 93 % of control

N#Cc1c(N)ncn1C1OC(CO)C(O)C1O (stereo unspecified)
inactive: [7] 96 % of control | [8] 104 % of control | [9] 109 % of control

COC(=O)c1ccc(Cl)c(NN)c1
inactive: [22] 100 % of control | [15] 100 % of control | [16] 105 % of control

CN(C)C12CCCCC1S(=O)(=O)C2 (stereo unspecified)
inactive: dose: 10.0 mg/kg/injection, schedule: Q01DX009 (ip), vehicle: saline 88 % of control | dose: 20.0 mg/kg/injection, schedule: Q01DX009 (ip), vehicle: saline 98 % of control

S=C=NCc1ccccc1
inactive: dose: 75.0 mg/kg/injection, schedule: Q01DX001 (ip), vehicle: saline 97 % of control | dose: 150.0 mg/kg/injection, schedule: Q01DX001 (ip), vehicle: saline 105 % of control

CCc1ccccn1
inactive: [7] 100 % of control | [8] 102 % of control | [9] 95 % of control

[N-]=[N+]=C1N=CN=C1c1ncn[nH]1
inactive: dose: 6.0 mg/kg/injection, schedule: Q01DX015 (ip), vehicle: carboxymethylcellulose (CMC) 120 % of control | [23] 115 % of control
active: dose: 55.0 mg/kg/injection, schedule: Q01DX015 (ip), vehicle: carboxymethylcellulose (CMC) 172 % of control

O=C(NCCN1CCOCC1)Nc1cccc2c1CCCC2
inactive: dose: 100.0 mg/kg/injection, schedule: Q04DX002 (ip), vehicle: saline with Tween-80 94 % of control | dose: 200.0 mg/kg/injection, schedule: Q04DX002 (ip), vehicle: saline with Tween-80 108 % of control | dose: 400.0 mg/kg/injection, schedule: Q04DX002 (ip), vehicle: saline with Tween-80 116 % of control

Nc1cccc(S(=O)(=O)N(CCO)CCO)c1
inactive: [3] 90 % of control | [24] 95 % of control | dose: 400.0 mg/kg/injection, schedule: Q04DX003 (ip), vehicle: saline 94 % of control

C=CCC(O)CCC (stereo unspecified)
inactive: [19] 89 % of control | [22] 97 % of control | [20] 90 % of control | [15] 100 % of control | [21] 89 % of control | [16] 100 % of control

COc1cc2cc(C)c(I)cc2cc1OC
inactive: dose: 75.0 mg/kg/injection, schedule: Q04DX003 (ip), vehicle: Klucel (hydroxypropylcellulose) (HPC) 97 % of control | dose: 150.0 mg/kg/injection, schedule: Q04DX003 (ip), vehicle: Klucel (hydroxypropylcellulose) (HPC) 97 % of control | dose: 300.0 mg/kg/injection, schedule: Q04DX003 (ip), vehicle: Klucel (hydroxypropylcellulose) (HPC) 103 % of control

CC(=O)c1c(O)cc(O)cc1-c1cc(=O)c2c(O)ccc(C(C)=O)c2o1
inactive: [17] 103 % of control | [18] 94 % of control

O=C1CCNc2cc(Cl)ccc21
inactive: [4] 96 % of control | [13] 98 % of control | [5] 95 % of control | [14] 95 % of control | [6] 104 % of control

O=C(Nc1cccc(O)c1)Oc1cccc(Cl)c1
inactive: [19] 98 % of control | [20] 102 % of control | [21] 106 % of control

CCOC(=O)c1c(O)c(C(=O)O)cc2ccccc12
inactive: [23] 106 % of control | [17] 108 % of control | [18] 106 % of control | [25] 106 % of control

Cc1cccc(-c2nnc(C(Cl)(Cl)Cl)o2)c1
inactive: [10] 106 % of control | [11] 97 % of control | [12] 97 % of control

CN1CCN(CCC=C2c3ccccc3Sc3ccc(S(=O)(=O)N(C)C)cc32)CC1
inactive: dose: 0.39 mg/kg/injection, schedule: Q01DX009 (ip), vehicle: saline 114 % of control | dose: 0.78 mg/kg/injection, schedule: Q01DX009 (ip), vehicle: saline 101 % of control | dose: 1.56 mg/kg/injection, schedule: Q01DX009 (ip), vehicle: saline 121 % of control | dose: 3.12 mg/kg/injection, schedule: Q01DX009 (ip), vehicle: saline 114 % of control | dose: 6.25 mg/kg/injection, schedule: Q01DX009 (ip), vehicle: saline 114 % of control | dose: 12.5 mg/kg/injection, schedule: Q01DX009 (ip), vehicle: saline 102 % of control | [1] 95 % of control | [2] 95 % of control | [17] 121 % of control | [3] 122 % of control | [18] 103 % of control | [24] 104 % of control | [25] 118 % of control
